{"source": "patent US20200069775A1", "about": "“BRAIN OSTEOCALCIN RECEPTOR AND COGNITIVE DISORDERS” (The Trustees of Columbia University in the City of New York, priority 2017, published 2020)", "key": {"[1]": {"test_system": "Tph2, Th, Gad1 expression in brainstem and midbrain explants", "assay": "Gene expression (qPCR) in brainstem and midbrain explants", "assay_type": "cell-based, mouse", "description": "For gene expression studies, RNA was isolated from primary neurons or tissue using TRIZOL® (Invitrogen). cDNA synthesis was performed following a standard protocol from Invitrogen and qPCR analyses were done using specific quantitative PCR primers from SABiosciences (http://www.sabiosciences.com/RT2PCR.php).\nBrains were dissected and incubated for 30 minutes in ice cold oxygenated artificial cerebrospinal fluid (ACSF). Brains were then sliced at 500 μm at the midbrain, −1.55 to −2.35 mm from the bregma, and at the level of the brainstem, from −4.04 to −4.48 mm and from −4.60 to −5.20 mm from the bregma, to include the median and dorsal raphe, respectively. These slices were incubated in ACSF for 1 h, constantly oxygenated (95% O2 and 5% CO2) […], after which they were treated with either osteocalcin (10 ng/ml) or PBS for four hours. Expression of Tph2, TH, GAD 1, GAD2, and Ddc was measured by qPCR.\nTo determine if osteocalcin acts directly on neurons to modulate neurotransmitter synthesis, several types of assays were performed. First, brainstem and midbrain explants from WT and Gprc6a^−/− mice were generated. Brains were sliced (500 μm) at the level of the median and dorsal raphe of the brainstem (from −4.04 to −4.48 mm and from −4.60 to −5.20 mm, respectively), so that they would be enriched in serotonin-producing neurons, as well as at the level of substantia nigrae and ventral tegmental areas (VTA) of the midbrain (from −1.55 to −2.35 mm and from −2.55 to −3.25 mm, respectively). Enrichment in serotoninergic and catecholaminergic neurons in these explants was verified by their high Tph2 and Th expression. While leptin, used here as a positive control, reduced, as it should, Tph2 expression in WT or Gprc6a^−/− brainstem explants, osteocalcin ([…]) increased expression of this gene 2.5 fold in both WT and Gprc6a^−/− explants. (FIG. 3D). […] Third, to further confirm that osteocalcin signals in neurons of the hindbrain, calcium flux in MPHN treated with undercarboxylated or carboxylated osteocalcin (FIG. 3F) was measured."}, "[2]": {"assay": "Ex vivo dual perfusion of the mouse placenta (maternal-fetal transport)", "assay_type": "in vitro ADME", "description": "Maternal-fetal transport of osteocalcin was monitored using ex vivo dual perfusion of the mouse placenta (Goeden & Bonnin, 2013, Nature Protocols 8:66-74). Osteocalcin (300 ng/ml) was injected on the maternal side through the uterine artery in placentas obtained from WT mice at E14.5, E15.5, and E18.5 of pregnancy (n=3 independent perfusions per age). Osteocalcin transport through the placenta was analyzed by measuring the concentration of osteocalcin present in fetal eluates obtained through the umbilical vein, each time point (1-9) corresponding to a 10 minute collection period (at 5 μl/min). Collection time points (from 10 to 30 min of perfusion) were obtained during materal fluid infusion; time points 4-6 (from 30 to 60 min of perfusion) were obtained during osteocalcin infusion into the maternal uterine artery, whereas for time points 7-9 (from 60 to 90 min of perfusion, respectively) the maternal uterine artery was infused with maternal fluid alone.\nAny influence of maternal osteocalcin on fetal brain development requires that this hormone cross the placenta. This was investigated through an ex vivo dual perfusion system that monitors the transport of substances across the mouse placenta (Bonnin et al., 2011, Nature 472:347-350; Goeden and Bonnin, […], Nature Protocols 8:66-74)."}, "[3]": {"test_system": "3 month-old WT mice", "assay": "Alendronate treatment with or without osteocalcin, MWMT and NOR", "assay_type": "in vivo, mouse", "conditions": "peripheral delivery of osteocalcin, 60 ng/hr by osmotic pump", "description": "For plasma injection experiments, 100 μl of plasma were injected 8 times during 24 days, via tail vein. Each group described is represented individually in each panel. For osteocalcin delivery in WT mice, pumps (Alzet micro-osmotic pump, Model 1002) delivering osteocalcin (30 ng/hr for 12 month-old and 90 ng/hr for 16 month-old mice), or vehicle, were surgically installed subcutaneously in the back of mice. […] Control mice receiving vehicle or mice receiving alendronate were implanted with osmotic pumps delivering vehicle only.\nMorris water maze test: Animals are transported to the testing room in their home cages, and left undisturbed for at least 30 minutes prior to the first trial. The maze is comprised of a large swimming pool (150cm diameter) filled with water (23° C.) made opaque with non-toxic white paint. The pool is located in a brightly lit room filled with visual cues, including geometric figures on the walls of the maze demarking the four fixed starting positions of the trials, at (12:00, 3:00, 6:00 and 9:00). A 15 cm round platform is hidden 1 cm beneath the surface of the water at a fixed position. Each daily trial block consisted of four swimming trials, with each mouse starting from the same randomly chosen starting position. The starting position is varied between days. On day 1, mice that fail to find the platform within 2 min are guided to the platform. They must remain on the platform for 15 s before they are returned to their home cage. Mice are not guided to the platform after day 1, and the time it takes them to reach the platform over repeated trials ([…] for the next 10 days) is recorded as a measure of spatial learning.\nNovel object recognition test (NOR): The NOR paradigm assesses the rodent's ability to recognize a novel object in the environment. The NOR task will be conducted, as previously described7, in an opaque plastic box using 2 different objects: (1) a clear plastic funnel (diameter 8.5 cm, maximal height 8.5 cm) and (2) a black plastic box (9.5 cm^3). These objects elicit equal levels of exploration as determined in pilot experiments (Denny, C. A., et al., 2012, Hippocampus 22:1188-1201; Oury, F., et al., 2013, Cell 155:228-241). The NOR paradigm consists of 3 exposures over the course of 3 days. On day 1, the habituation phase, mice are given 5 minutes to explore the empty arena, without any objects. On day 2, the familiarization phase, mice are given 10 minutes to explore 2 identical objects, placed at opposite ends of the box. On day 3, the test phase, mice are given 15 minutes to explore 2 objects, one novel object and a copy of the object from the familiarization phase. The object that serves as the novel object (either the funnel or the box) as well as the left/right starting position of the objects are counterbalanced within each group. Mice are placed in the center of the arena at the start of each exposure. […] Preference for the novel object is assessed based on the fraction of time that a mouse spends exploring the novel object compared to the familiar object. Exploration is scored from video recordings of each exposure and recorded using the Stopwatch program. […]\nStreptavidin were added for 30 minutes at room temperature followed by PBS washes. […] For hormonal measurement; circulating levels of the carboxylated, undercarboxylated or uncarboxylated forms of osteocalcin were measured by ELISA. CTX content in serum (ng/ml) were measured with specific ELISAs (RatLaps™ (CTX-I) EIA (Immunodiagnosticsystems)."}}}
{"substance": "osteocalcin: Recombinant osteocalcin bacterially produced, cleaved from the GST subunit; completely undercarboxylated at all three sites; full-length mouse osteocalcin (YLGASVPSPDPLEPTREQCELNPACDELSDQYGLKTAYKRIYGITI)", "values": [{"measurement": "Gad1 expression", "setting": "[1]; WT and Gprc6a−/− hindbrain explants", "result": "decreased Gad1 expression"}, {"measurement": "Th expression", "setting": "[1]; midbrain explants", "result": "increased Th expression"}, {"measurement": "increase of Tph2 expression", "setting": "[1]; osteocalcin 3 ng/ml, WT and Gprc6a−/− brainstem explants", "result": 2.5, "unit": "fold"}, {"measurement": "transport across the placenta", "setting": "[2]; day 14.5 of gestation, 300 ng/ml through uterine artery", "result": "begins to cross the placenta"}, {"measurement": "transplacental transfer to the fetal circulation", "setting": "[2]; day 15.5 or 18.5 of gestation", "result": "larger transplacental transfer"}, {"measurement": "behavioral abnormalities (MWMT, NOR) of alendronate-treated mice", "setting": "[3]", "result": "corrected"}]}
